Experiments:
[1] = test system: FOP control vector (randomized, non-functional sequence instead of functional TCF elements) in HCT116 cells; experiment: Control reporter assay, HCT116 cells stably transfected with FOP control vector (HCT116-FOP), luciferase readout; type: cell-based; settings: Homo sapiens, HCT-116, 36 hours incubation, luciferase expression, dilution series up to 50 μM
Procedure: In a parallel approach, HCT116 cells were cotransfected with the FOP control vector and pcDNA3. The FOP vector is identical to the TOP construct, but it contains instead of functional TCF elements a randomized, non-functional sequence. For this transfection a stable transfected cell line was generated as well.
(§1) In preparation of the assay, the two cell lines were plated 24 hours before at 10000 cells per well of a 384 micro titre plate (MTP) in 30 μL growth medium. Selective inhibitory activity for small molecules on the mutated Wnt pathway was determined after parallel incubation of both (TOP and FOP) HCT116 reporter cell lines with a compound dilution series from 50 μM to 15 nM in steps of 3.16-fold dilutions in CAFTY buffer (130 mM NaCl, 5 mM KCl, 20 mM HEPES, 1 mM MgCl2, 5 mM NaHCO3, pH 7.4) containing 2 mM Ca^2+ and 0.01% BSA. The compounds were thereby serially prediluted in 100% DMSO and thereafter in addition 50 fold into the CAFTY compound dilution buffer (described above). From this dilution 10 μL were added to the cells in 30 μL growth medium and incubated for 36 hours at 37° C. and 5% CO2. Thereafter luciferase assay buffer (1:1 mixture of luciferase substrate buffer (20 mM Tricine, 2.67 mM MgSO4, 0.1 mM EDTA, 4 mM DTT, 270 μM Coenzyme A, 470 μM Luciferin, 530 μM ATP, ph adjusted to pH 7.8 with a sufficient volume of 5M NaOH) and Triton buffer (30 mL Triton X-100, 115 mL glycerol, 308 mg Dithiothreitol, 4.45 g Na2HPO4.2H2O, 3.03 g TRIS HCl, ad 1I H2O, pH 7.8) was added as equal volume to the compound solution on the cells to determine luciferase expression as a measure of Wnt signaling activity in a luminometer.

[2] = test system: constitutive active colorectal cancer cell (CRC) Wnt pathway; experiment: Cellular reporter assay, HCT116 cells stably transfected with Super TopFlash vector (HCT116-TOP), luciferase readout; type: cell-based; settings: Homo sapiens, HCT-116, 36 hours incubation, luciferase expression, average or median values
Procedure: In order to discover and characterize small molecules which inhibit the constitutive active colorectal cancer cell (CRC) Wnt pathway, a cellular reporter assay was employed. The corresponding assay cell was generated by transfection of the colorectal cancer cell line HCT116 (ATCC, #CCL-247) with the Super TopFlash vector (Morin, Science 275, 1997, 1787-1790; Molenaar et al., Cell 86 (3), 1996, 391-399). The HCT116 cell line is cultivated at 37° C. and 5% CO2 in DMEM/F-12 (Life Technologies, #11320-074), supplemented with 2 mM glutamine, 20 mM HEPES, 1.4 mM pyruvate, 0.15% Na-bicarbonate and 10% foetal bovine serum (GIBCO, #10270), this cancer cell line is pathophysiological relevant since it carries a deletion of position S45 in the β-catenin gene, leading to constitutive active Wnt signaling. Stable transfectants were generated by cotransfection with pcDNA3 and selection of stable transfected cells with 1 mg/mL G418.
as §1

SMILES | IC50 [1] [µM] | IC50 [2] [nM]
O=C(CN1CCOCC1)Nc1cc(C(=O)Nc2ccc(-c3cnc(N4CCC4)nc3)cc2)ccc1OC(F)(F)F [Example 11, N-{4-[2-(azetidin-1-yl)pyrimidin-5-yl]phenyl}-3-[(morpholin-4-ylacetyl)amino]-4-(trifluoromethoxy)benzamide] | ≥ 50 | 200
CN1CCN(CC(=O)Nc2cc(C(=O)Nc3ccc(-c4cnc(N)nc4)cc3)ccc2OC(F)(F)F)CC1 [Example 33] | ≥ 50 | 55.5
O=C(Nc1ccc(-c2cccnc2F)cc1)c1ccc(F)c(NC(=O)C2(N3CCOCC3)CC2)c1 [Example 26, 4-fluoro-N-[4-(2-fluoropyridin-3-yl)phenyl]-3-({[1-(morpholin-4-yl)cyclopropyl]carbonyl}-amino)benzamide] | ≥ 50 | 14
Nc1ccc(-c2ccc(NC(=O)c3ccc(OC(F)(F)F)c(NC(=O)C4(N5CCOCC5)CC4)c3)cc2)cn1 [Example 21, N-[4-(6-aminopyridin-3-yl)phenyl]-3-({[1-(morpholin-4-yl)cyclopropyl]carbonyl}amino)-4-(trifluoromethoxy)benzamide] | 46.5 | 4.55
O=C(CN1CCOCC1)Nc1cc(C(=O)Nc2ccc(-c3cccnc3F)cc2)ccc1OC(F)(F)F [Example 4, N-[4-(2-fluoropyridin-3-yl)phenyl]-3-[(morpholin-4-ylacetyl)amino]-4-(trifluoromethoxy)benzamide] | ≥ 50 | 14.8
CN(C)c1ncc(-c2ccc(NC(=O)c3ccc(OC(F)(F)F)c(NC(=O)CN4CCOCC4)c3)cc2)cn1 [Example 10, N-{4-[2-(dimethylamino)pyrimidin-5-yl]phenyl}-3-[(morpholin-4-ylacetyl)amino]-4-(trifluoromethoxy)benzamide] | ≥ 50 | 60.9
CN1CCN(CC(=O)Nc2cc(C(=O)Nc3ccc(-c4cccnc4)cc3)ccc2OC(F)(F)F)CC1 [Example 30, 3-{[(4-methylpiperazin-1-yl)acetyl]amino}-N-[4-(pyridin-3-yl)phenyl]-4-(trifluoromethoxy)benzamide] | 38.5 | 31.3
COc1ncccc1-c1ccc(NC(=O)c2ccc(OC(F)(F)F)c(NC(=O)CN3CCOCC3)c2)cc1 [Example 17, N-[4-(2-methoxypyridin-3-yl)phenyl]-3-[(morpholin-4-ylacetyl)amino]-4-(trifluoromethoxy)-benzamide] | ≥ 50 | 285
O=C(CN1CCOCC1)Nc1cc(C(=O)Nc2ccc(-c3cccnc3F)cc2)ccc1OC(F)F [Example 39, 4-(difluoromethoxy)-N-[4-(2-fluoropyridin-3-yl)phenyl]-3-[(morpholin-4-ylacetyl)amino] benzamide] | ≥ 50 | 5400
O=C(Nc1ccc(-c2cccnc2F)cc1)c1ccc(Cl)c(NC(=O)C2(N3CCOCC3)CC2)c1 [Example 22, 4-chloro-N-[4-(2-fluoropyridin-3-yl)phenyl]-3-({[1-(morpholin-4-yl)cyclopropyl]carbonyl}amino)-benzamide] | ≥ 50 | 140
CN1CCN(CC(=O)Nc2cc(C(=O)Nc3ccc(-c4cncnc4)cc3)ccc2OC(F)(F)F)CC1 [Example 32, 3-{[(4-methylpiperazin-1-yl)acetyl]amino}-N-[4-(pyrimidin-5-yl)phenyl]-4-(trifluoromethoxy)benzamide] | 40 | 47.5
Nc1ccc(-c2ccc(NC(=O)c3ccc(OC(F)(F)F)c(NC(=O)CN4CCOCC4)c3)cc2)cn1 [Example 7, N-[4-(6-aminopyridin-3-yl)phenyl]-3-[(morpholin-4-ylacetyl)amino]-4-(trifluoromethoxy)benzamide] | ≥ 50 | 22.8
Nc1ncc(-c2ccc(NC(=O)c3ccc(Cl)c(NC(=O)C4(N5CCOCC5)CC4)c3)cc2)cn1 [Example 23, N-[4-(2-aminopyrimidin-5-yl)phenyl]-4-chloro-3-({[1-(morpholin-4-yl)cyclopropyl]carbonyl}amino)-benzamide] | ≥ 50 | 26.2
O=C(Nc1ccc(-c2cccnc2F)cc1)c1ccc(OC(F)(F)F)c(NC(=O)C2(N3CCOCC3)CC2)c1 [Example 20, N-[4-(2-fluoropyridin-3-yl)phenyl]-3-({[1-(morpholin-4-yl)cyclopropyl]carbonyl}amino)-4-(trifluoromethoxy)benzamide] | ≥ 50 | 3.15

The next lines start with the values.

IC50 [1] [µM] | IC50 [2] [nM] | SMILES
≥ 50 | 78.7 | O=C(CN1CCOCC1)Nc1cc(C(=O)Nc2ccc(-c3cccnc3)cc2)ccc1OC(F)(F)F [Example 18, 3-[(morpholin-4-ylacetyl)amino]-N-[4-(pyridin-3-yl)phenyl]-4-(trifluoromethoxy)benzamide]
≥ 50 | 48.8 | Nc1ccc(-c2ccc(NC(=O)c3ccc(OC(F)F)c(NC(=O)CN4CCOCC4)c3)cc2)cn1 [Example 29, N-[4-(6-aminopyridin-3-yl)phenyl]-4-(difluoromethoxy)-3-[(morpholin-4-ylacetyl)amino]benzamide]
≥ 50 | 15600 | COc1ccc(NC(=O)c2ccc(-c3cnn(C)c3)cc2)cc1NC(=O)CN1CCOCC1 [Example 36, N-{4-methoxy-3-[(morpholin-4-ylacetyl)amino]phenyl}-4-(1-methyl-1H-pyrazol-4-yl)benzamide]
≥ 50 | 23000 | COc1ccc(NC(=O)c2ccc(-c3cnc(N)nc3)cc2)cc1NC(=O)CN1CCOCC1 [Example 37, 4-(2-aminopyrimidin-5-yl)-N-{4-methoxy-3-[(morpholin-4-ylacetyl)amino]phenyl} benzamide]
≥ 50 | 37 | O=C(CN1CCOCC1)Nc1cc(C(=O)Nc2ccc(-c3cccnc3)cc2)ccc1OC(F)F [Example 27, 4-(difluoromethoxy)-3-[(morpholin-4-ylacetyl)amino]-N-[4-(pyridin-3-yl)phenyl]benzamide]
≥ 50 | 10900 | COc1ccc(NC(=O)c2ccc(-c3cccnc3)cc2)cc1NC(=O)CN1CCOCC1 [Example 38, N-{4-methoxy-3-[(morpholin-4-ylacetyl)amino]phenyl)-4-(pyridin-3-yl)benzamide]
≥ 50 | 66.5 | O=C(CN1CCOCC1)Nc1cc(C(=O)Nc2ccc(-c3cncnc3)cc2)ccc1OC(F)(F)F [Example 8, 3-[(morpholin-4-ylacetyl)amino]-N-[4-(pyrimidin-5-yl)phenyl]-4-(trifluoromethoxy)benzamide]
≥ 50 | 625 | COc1ccc(NC(=O)c2ccc(-c3ccc(N)nc3)cc2)cc1NC(=O)CN1CCOCC1 [Example 1, 4-(6-aminopyridin-3-yl)-N-{4-methoxy-3-[(morpholin-4-ylacetyl)amino]phenyl}benzamide]
≥ 50 | 410 | COc1ncc(-c2ccc(NC(=O)c3ccc(OC(F)(F)F)c(NC(=O)CN4CCOCC4)c3)cc2)cn1 [Example 9, N-[4-(2-methoxypyrimidin-5-yl)phenyl]-3-[(morpholin-4-ylacetyl)amino]-4-(trifluoromethoxy)-benzamide]
≥ 50 | 160 | Cn1cc(-c2ccc(NC(=O)c3ccc(OC(F)(F)F)c(NC(=O)CN4CCOCC4)c3)cc2)cn1 [Example 5, N-[4-(1-methyl-1H-pyrazol-4-yl)phenyl]-3-[(morpholin-4-ylacetyl)amino]-4-(trifluoromethoxy)-benzamide]

Source: US20180042931A1 (Bayer Pharma Aktiengesellschaft, priority 2015, published 2018)
